How the values were obtained:
[1] = test system: neuron specific enolase (NSE)/enolase 2; assay: Suppression of neuron specific enolase (NSE)/enolase 2 (Example 18); type: cell-based; settings: FIG. 57
[2] = test system: colon; assay: Intestinal permeability assay (Ussing chambers); type: in vivo; settings: colon of mice fed with MRx0029
Experimental: Animals were allowed to habituate to their holding room for one week after arrival into the animal unit. They receive oral gavage (200 μL dose) of live biotherapeutics at a dose of 1×10^9 CFU for 6 consecutive days between 15:00 and 17:00. On day 7, the animals are decapitated, and tissues are harvested for experimentation. Animals were sacrificed in a random fashion regarding treatment and testing condition; sampling occurred between 9.00 a.m. and 2:30 p.m. Trunk blood was collected in potassium EDTA (Ethylene Diamine Tetra Acetic Acid) tubes and spun for 15 min at 4000 g. Plasma was isolated and stored at −80° C. for further analysis. The brain was quickly excised, dissected and each brain region was snap-frozen on dry ice and stored at −80° C. for further analysis. Spleen was removed, collected in 5 mL RPMI media (with L-glutamine and sodium bicarbonate, R8758 Sigma+10% FBS (F7524, Sigma)+1% Pen/Strep (P4333, Sigma)) and processed immediately after culls for ex-vivo immune stimulation. Intestinal tissue (2 3 cm segments of ileum and colon closest to the caecum were excised, and the furthest 1 cm 2 cm of tissue from the caecum were used) were mounted into the Ussing chambers for intestinal permeability assay. The caecum was removed, weighted and stored at −80° C. for SCFAs analysis.

[3] = test system: MAP2; assay: MAP2 gene expression in SKMEL2 cell line (qPCR); type: cell-based; settings: SKMEL2, relative to both negative controls (cell line only, and YCFA+)
Experimental: Cells were plated in 12-well plates at density of 2×10^5 cells/well. After 24 h cells were treated with either DMSO or Vemurafenib (662005; EMD Millipore; VEMU; SKMEL28, SKMEL31, 451Lu, HT29 (1 μM) SKMEL2 (10 μM) or Azacytidine-C (A3656; Sigma Aldrich; AzaC; 5 μg/ml) or both drugs (VEMU+Aza) together, in presence of 10% bacteria supernatants or absence of it (YCFA+). Total RNA was extracted using the RNeasy mini kit (Qiagen, Manchester, UK) according to the manufacturer's instructions, and the RNA concentration was determined by spectrophotometer at 260/280 nm (NanoDrop ND-1000; Thermo Fisher Scientific, Loughborough). For mRNA expression analysis, cDNA was prepared from 2000 ng of total RNA using the High-Capacity cDNA reverse transcription kit (Thermo Fisher, Loughborough) according to the manufacturer's instructions. The reverse transcription reactions were performed in a thermocycler (Biometra, Germany) at 25° C. for 10 min, 37° C. for 120 min, and 85° C. for 5 min Resulting cDNA was amplified in duplicates by the SYBR-Green PCR assay, and products were detected on QuantStudio 6 flex real-time PCR machine (Applied Biosystems, UK) using a standardised profile (initial denaturation of 95° C. for 10 minutes, followed by 40 cycles of 10 seconds of denaturation at 95° C. and 30 seconds of annealing/extension at 65° C.). […]

[4] = test system: HDAC; assay: HDAC inhibition on whole HT-29 cells; type: cell-based
Experimental: Pure cultures of bacteria were grown anaerobically in YCFA+ broth until they reached their stationary growth phase. Cultures were centrifuged at 5,000×g for 5 minutes and the cell-free supernatant (CFS) was filtered using a […] (Millipore, UK). 1 mL aliquots of the CFS were stored at −80° C. until use. Sodium butyrate, hexanoic and valeric acid were obtained from Sigma Aldrich (UK) and suspensions were prepared in YCFA+ broth.
To investigate which metabolites were responsible for the strain-induced HDAC inhibition, different concentrations of hexanoic acid, valeric acid and sodium butyrate were measured for their HDAC inhibition on whole HT-29 cells and on HT-29 cell lysate.

[5] = test system: HT29 colorectal cancer cell line; assay: Clonogenic survival of HT29 cell line; type: cell-based; settings: HT29, relative to both negative controls (cell line only, and YCFA+ +DMSO)
Experimental: Cells were trypsinized and 200 cells/well were seeded in 12-well plates. After 48 h cells were treated with the appropriate drugs in absence (YCFA+) or presence of 10% bacterial supernatant and were re-fed every three days. On day 21 after seeding, cells were fixed in ice-cold methanol and stained with Crystal Violet blue. […] were counted and survival fraction was calculated as number of colonies divided by the number of plated cells (plating efficiency) of treated divided by the plating efficiency of control.
The effects of the following treatments were assessed on the HT29 colorectal cancer cell line (V600E oncogenic mutation in BRAF): (1) MRx0029; (2) Vemurafenib (VEMU) in YFCA+ medium; (3) VEMU and MRx0029; (4) Azacytidine-C (Aza-c) in YCFA+ medium; (5) Aza-c and MRx0029; (6) VEMU, Aza-c and MRx0029.

Substance: Megasphaera massiliensis MRx0029
- neuron specific enolase (NSE)/enolase 2 [1]: statistically-significant effect suppressing
- permeability function in the colon [2]: decrease the permeability function
- MAP2 gene expression [3]: increased MAP2 gene expression
- HDAC inhibition on whole HT-29 cells [4]: strong HDAC inhibition
- clonogenic survival [5]: decreased clonogenic survival

Reference: patent US11419902B2, “Compositions comprising bacterial strains” (4D Pharma Research Limited, priority 2018, dated 2022)
